Experimental data as given in US9957282B2, “Crystalline forms of quinolone analogs and their salts” (Senhwa Biosciences, Inc., priority 2015, dated 2018).

Assays:
[1] = Aqueous solubility of acid salts of Compound I; assay type: physicochemical; details: water, 42 °C, thermodynamic from solid, approximately 50 mg salt in 0.25 mL water (x2, added portion wise), read-out: Aqueous Solubility (Calculated)
[2] = Solubility of polymorph forms in organic solvents; assay type: physicochemical
Procedure: Solubility of polymorphs A, C, E, and G of Compound I (free base) were determined by suspending approximately 25 mg of each polymorph in organic solvents and the resulting mixtures were stirred at room temperature or elevated temperatures for 1 h. A sample was filtered and the concentration was determined by HPLC. The remaining suspension was evaporated and the solid was analyzed by XRPD to confirm that the polymorph form in the suspension was still the same polymorph form used for the experiment.

Row | solubility at 3 days [1] [mg/mL] | Relative stability of polymorph, inferred from solubility ([2]; compared with polymorphs C, E, G) | Solubility of polymorph relative to polymorphs A, C, E, G ([2]; methanol and THF (FIG. 20), room temperature or elevated temperatures, stirred 1 h) | Structure (SMILES)
1 | > 200 |  |  | Cc1cnc(CNC(=O)c2c(=O)c3ccc(N4CCCN(C)CC4)nc3n3c2sc2ccccc23)cn1
2 |  | most stable | lowest solubility | Cc1cnc(CNC(=O)c2c(=O)c3ccc(N4CCCN(C)CC4)nc3n3c2sc2ccccc23)cn1 [Polymorph A]
